Measurements from US20230183219A1, “CONDENSED SUBSTITUTED HYDROPYRROLES AS ANTAGONISTS OF THE MUSCARINIC ACETYLCHOLINE RECEPTOR M4” (Vanderbilt University, priority 2020, published 2023).

Target: T1, Human M4 (Homo sapiens, UniProt P08173)
T1 construct: Human or rat M4 cDNA, along with the chimeric G protein Gqi5, were transfected into Chinese hamster ovary (CHO-K1) cells; expressed in transfected cells; host or cells: CHO-K1 (Chinese hamster ovary, ATCC), stably co-expressing Gqi5
T1 sequence (P08173 1-479): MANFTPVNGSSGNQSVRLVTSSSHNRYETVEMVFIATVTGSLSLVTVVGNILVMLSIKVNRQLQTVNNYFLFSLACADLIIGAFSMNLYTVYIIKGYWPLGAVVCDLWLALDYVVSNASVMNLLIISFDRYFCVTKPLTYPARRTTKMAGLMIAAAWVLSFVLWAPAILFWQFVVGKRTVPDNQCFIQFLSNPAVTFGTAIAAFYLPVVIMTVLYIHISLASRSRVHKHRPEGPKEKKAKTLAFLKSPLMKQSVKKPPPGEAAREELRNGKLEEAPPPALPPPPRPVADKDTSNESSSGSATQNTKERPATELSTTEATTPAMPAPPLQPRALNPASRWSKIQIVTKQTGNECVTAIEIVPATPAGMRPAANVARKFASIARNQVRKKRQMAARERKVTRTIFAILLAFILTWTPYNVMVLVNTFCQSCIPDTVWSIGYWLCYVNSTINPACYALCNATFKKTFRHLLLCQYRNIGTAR
Test: mAChR M4 cell-based functional assay (calcium flux, decrease of EC80 acetylcholine response)
Conditions: for remaining activity at 30 µM: % ACh maximum at 30 μM, read-out: Human M4 Emin; for IC50: M4/Gqi5/CHO-K1 cells, decrease of response to EC80 acetylcholine
Protocol: Human or rat M4 cDNA, along with the chimeric G protein Gqi5, were transfected into Chinese hamster ovary (CHO-K1) cells purchased from the American Type Culture Collection using Lipofectamine2000. M4/Gqi5/CHO cells were grown in Ham's F-12 medium containing 10% heat-inactivated fetal bovine serum (FBS), 20 mM HEPES, 500 μg/mL G418 sulfate, and 200 μg/mL Hygromycin B.
For high throughput measurement of agonist-evoked increases in intracellular calcium, CHO-K1 cells stably expressing muscarinic receptors were plated in growth medium lacking G418 and hygromycin at 15,000 cells/20 μL/well in Greiner 384-well black-walled, tissue culture (TC)-treated, clear-bottom plates (VWR). Cells were incubated overnight at 37° C. and 5% CO2. The next day, cells were washed using an ELX 405 (BioTek) with assay buffer; the final volume was then aspirated to 20 μL. Next, 20 μL of a 2.3 μM stock of Fluo-4/acetoxymethyl ester (Invitrogen, Carlsbad, Calif.), prepared as a 2.3 mM stock in DMSO and mixed in a 1:1 ratio with 10% (w/v) Pluronic F-127 and diluted in assay buffer, was added to the wells and the cell plates were incubated for 50 min at 37° C. and 5% CO2. Dye was removed by washing with the ELX 405 and the final volume was aspirated to 20 μL. Compound master plates were formatted in a 10 point concentration-response curve (CRC) format (1:3 dilutions) in 100% DMSO with a starting concentration of 10 or 1 mM using a BRAVO liquid handler (Agilent). Test compound CRCs were then transferred to daughter plates (240 nL) using the Echo acoustic plate reformatter (Labcyte, Sunnyvale, Calif.) and then diluted into assay buffer (40 μL) to a 2×stock using a Thermo Fisher Combi (Thermo Fisher Scientific, Waltham, Mass.).
Calcium flux was measured using the Functional Drug Screening System (FDSS) 6000 or 7000 (Hamamatsu Corporation, Tokyo, Japan) as an increase in the fluorescent static ratio. Compounds were applied to cells (20 μL, 2×) using the automated system of the FDSS at 2 seconds into the protocol and the data were collected at 1 Hz. At 143 s, 10 μL of an EC20 concentration of the muscarinic receptor agonist acetylcholine was added (5×), followed by the addition of 12 μL of an EC80 concentration of acetylcholine at the 268 s time point (5×). Agonist activity was analyzed as a concentration-dependent increase in calcium mobilization upon compound addition. Positive allosteric modulator activity was analyzed as a concentration-dependent increase in the EC20 acetylcholine response. Antagonist activity was analyzed as a concentration-dependent decrease in the EC80 acetylcholine response; for the purposes of the tables herein, an IC50 (inhibitory concentration 50) was calculated as a concentration-dependent decrease of the response elicited by an EC80 concentration of acetylcholine. Concentration-response curves were generated using a four-parameter logistical equation in XLFit curve fitting software (IDBS, Bridgewater, N.J.) for Excel (Microsoft, Redmond, Wash.) or Prism (GraphPad Software, Inc., San Diego, Calif.) or the Dotmatics software platform (Dotmatics, Bishop's Stortford, UK).
Compounds were synthesized as described above. Activity (IC50 and Emin) was determined in the mAChR M4 cell-based functional assay as described above and the data are shown in Table 2.

SMILES: Cn1cc2cc(-c3cc(C(F)(F)F)c(N[C@H]4C[C@@H]5CN(C[C@H]6CCOC6)C[C@@H]5C4)nn3)ccc2n1 [Example 33, (3aR,5s,6aS)-N-(6-(2-methyl-2H-indazol-5-yl)-4-(trifluoro-methyl)pyridazin-3-yl)-2-(((R)-tetrahydrofuran-3-yl)methyl)octahydro-cyclopenta[c]pyrrol-5-amine]
- remaining activity at 30 µM: 6%
- IC50: 188 nM

SMILES: Cn1cc2cc(-c3cc(C(F)(F)F)c(N[C@H]4C[C@@H]5CN(C[C@H]6COCCO6)C[C@@H]5C4)nn3)ccc2n1 [Example 34, (3aR,5s,6aS)-2-(((S)-1,4-dioxan-2-yl)methyl)-N-(6-(2-methyl-2H-indazol-5-yl)-4-(trifluoromethyl)pyridazin-3-yl)octahydro-cyclopenta[c]pyrrol-5-amine]
- remaining activity at 30 µM: 6%
- IC50: 32.9 nM

SMILES: Cn1cc2cc(-c3cc(C(F)(F)F)c(N[C@H]4C[C@@H]5CN(C[C@@H]6COCCO6)C[C@@H]5C4)nn3)ccc2n1 [Example 35, (3aR,5s,6aS)-2-(((R)-1,4-dioxan-2-yl)methyl)-N-(6-(2-methyl-2H-indazol-5-yl)-4-(trifluoromethyl)pyridazin-3-yl)octahydro-cyclopenta[c]pyrrol-5-amine]
- remaining activity at 30 µM: 6%
- IC50: 147 nM

SMILES: Fc1ccc(F)c(-c2cc(C(F)(F)F)c(N[C@H]3C[C@@H]4CN(CC5CCOCC5)C[C@@H]4C3)nn2)c1 [Example 38, (3aR,5s,6aS)-N-(6-(2,5-difluorophenyl)-4-(trifluoromethyl)pyridazin-3-yl)-2-((tetrahydro-2H-pyran-4-yl)methyl)octahydro-cyclopenta[c]pyrrol-5-amine]
- remaining activity at 30 µM: 3%
- IC50: 207 nM

SMILES: Cc1c(-c2cc(C(F)(F)F)c(N[C@H]3C[C@@H]4CN(CC5CCOCC5)C[C@@H]4C3)nn2)ccc2nn(C)cc12 [Example 39, (3aR,5s,6aS)-N-(6-(2,4-dimethyl-2H-indazol-5-yl)-4-(trifluoromethyl)pyridazin-3-yl)-2-((tetrahydro-2H-pyran-4-yl)methyl)octahydro-cyclopenta[c]pyrrol-5-amine]
- remaining activity at 30 µM: 2%
- IC50: 2.1 nM

SMILES: Cc1nn(C)c(C)c1-c1cc(C(F)(F)F)c(N[C@H]2C[C@@H]3CN(CC4CCOCC4)C[C@@H]3C2)nn1 [Example 40, (3aR,5s,6aS)-2-((tetrahydro-2H-pyran-4-yl)methyl)-N-(4-(trifluoromethyl)-6-(1,3,5-trimethyl-1H-pyrazol-4-yl)pyridazin-3-yl)octahydro-cyclopenta[c]pyrrol-5-amine]
- remaining activity at 30 µM: 4%
- IC50: 184 nM

SMILES: FC(F)(F)c1ccccc1-c1cc(C(F)(F)F)c(N[C@H]2C[C@@H]3CN(CC4CCOCC4)C[C@@H]3C2)nn1 [Example 41, (3aR,5s,6aS)-2-((tetrahydro-2H-pyran-4-yl)methyl)-N-(4-(trifluoromethyl)-6-(2-(trifluoromethyl)phenyl)pyridazin-3-yl)octahydro-cyclopenta[c]pyrrol-5-amine]
- remaining activity at 30 µM: 3%
- IC50: 13.6 nM

SMILES: Fc1cc(F)c(-c2cc(C(F)(F)F)c(N[C@H]3C[C@@H]4CN(CC5CCOCC5)C[C@@H]4C3)nn2)cc1F [Example 42, (3aR,5s,6aS)-2-((tetrahydro-2H-pyran-4-yl)methyl)-N-(4-(trifluoromethyl)-6-(2,4,5-trifluorophenyl)pyridazin-3-yl)octahydro-cyclopenta[c]pyrrol-5-amine]
- remaining activity at 30 µM: 3%
- IC50: 237 nM

SMILES: Fc1cc(F)c(F)c(-c2cc(C(F)(F)F)c(N[C@H]3C[C@@H]4CN(CC5CCOCC5)C[C@@H]4C3)nn2)c1 [Example 43, (3aR,5s,6aS)-2-((tetrahydro-2H-pyran-4-yl)methyl)-N-(4-(trifluoromethyl)-6-(2,3,5-trifluorophenyl)pyridazin-3-yl)octahydro-cyclopenta[c]pyrrol-5-amine]
- remaining activity at 30 µM: 3%
- IC50: 290 nM
